PubChem BioAssay (NCI)
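96-well plates; 48 h exposure; 5 concentrations. Endpoints by linear interpolation between flanking doses. Not reached: highest tested concentration assigned. GI50 is the concentration that inhibits growth by half. TGI is the concentration that stops growth completely.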

Columns and labels:
Experiment in all cases: NCI anticancer screen, dose series, 48 h
SF-268 CNS = test system: SF-268 CNS
UACC-257 melanoma = test system: UACC-257 melanoma
SK-MEL-28 melanoma = test system: SK-MEL-28 melanoma
TK-10 renal = test system: TK-10 renal
MDA-MB-231 breast = test system: MDA-MB-231 breast
OVCAR-3 ovarian = test system: OVCAR-3 ovarian
RPMI-8226 leukemia = test system: RPMI-8226 leukemia
M14 melanoma = test system: M14 melanoma
PC-3 prostate = test system: PC-3 prostate
HOP-92 NSCLC = test system: HOP-92 NSCLC

SMILES | GI50 (SF-268 CNS) [µM] | TGI (SF-268 CNS) [µM] | GI50 (UACC-257 melanoma) [µM] | TGI (UACC-257 melanoma) [µM] | GI50 (SK-MEL-28 melanoma) [µM] | TGI (SK-MEL-28 melanoma) [µM] | GI50 (TK-10 renal) [µM] | TGI (TK-10 renal) [µM] | GI50 (MDA-MB-231 breast) [µM] | TGI (MDA-MB-231 breast) [µM] | GI50 (OVCAR-3 ovarian) [µM] | TGI (OVCAR-3 ovarian) [µM] | GI50 (RPMI-8226 leukemia) [µM] | TGI (RPMI-8226 leukemia) [µM] | GI50 (M14 melanoma) [µM] | TGI (M14 melanoma) [µM] | GI50 (PC-3 prostate) [µM] | TGI (PC-3 prostate) [µM] | GI50 (HOP-92 NSCLC) [µM] | TGI (HOP-92 NSCLC) [µM]
COc1ccc(C2=NN(C(=O)COc3ccc(Cl)cc3)C(O)(c3cc(F)c(Cl)cc3Cl)C2)cc1OC (centres undefined) | 3.91 | 17.4 | 2.74 | 8.01 | 1.85 | 3.5 | 2.36 | 5.09 | 2.41 | 6.53 | 0.214 | 1.46 | 1.79 | 5.78 | 2.18 | 6.5 | 5.49 | 13.2 | 2.31 | 13.2
COc1cc(NC(=O)c2cc(OC)c3ccn(C)c3c2)cc2c1C[C@]1(C)CC[C@@H](O)C(C)(C)[C@H]1O2 | 9.09 | > 100 | 7.6 | > 100 | 5.29 | > 100 | 35.9 | > 100 | 7.73 | 41.8 | 12.6 | > 100 | 1.35 | 6.9 | 2.91 | 14 | 6.17 | > 100 | 4.11 | 32.3
Cc1ncc([N+](=O)[O-])n1CCNS(=O)(=O)CCCn1ccnc1[N+](=O)[O-] |  | > 100 |  | > 100 |  | > 100 |  | > 100 |  | > 100 |  | > 100 |  | > 100 |  | > 100 |  | > 100 |  | > 100
Nc1ccc(C(=O)c2ccc(N)c(Br)c2)cc1Br | 0.747 | > 53.1 | 14.4 | > 100 | 1.09 | > 100 | 0.567 | 21.5 | 0.772 | > 47.1 | 0.234 | 0.517 | 0.346 | 3.73 | 0.32 | 72.5 | 0.392 | > 63.4 | 0.299 | 5.9
OCC(O)C(O)C(O)C1SC(c2ccccc2)=NN1c1ccccc1 (centres undefined) |  | > 97.3 |  | > 100 |  | > 100 |  | > 95.7 |  | > 91.6 |  | > 87.6 |  | > 100 |  | > 100 |  | > 100 |  | 63.4
CC1(C)COCN1COC1CCCCC1 |  | > 100 |  | > 100 |  | > 100 |  | > 100 |  | > 100 |  | > 100 |  | > 100 |  | > 100 |  | > 100 |  | > 100
CCCCCCCCCNCCCCCCCCC | 2.29 | 5.28 | 1.93 | 3.61 | 1.76 | 3.29 | 1.75 | 3.23 | 1.56 | 3.21 | 1.93 | 3.46 | 1.96 | 4.18 | 1.76 | 3.19 | 2.03 | 4.7 | 1.47 | 3.03
CCOC(=O)CCCn1c(SC)nc2cc(-c3ccco3)[nH]c2c1=O | 52.7 | > 100 | > 100 | > 100 | > 100 | > 100 | 35.1 | > 100 | 28 | 81.2 | 48.2 | > 100 | > 100 | > 100 | > 100 | > 100 | > 100 | > 100 | 25.6 | 65.7
O=C(NC1CC1)c1ccc(-c2nc3ccc4[nH]ncc4c3c3c2CCCC3)cc1 | 1.87 | 14 | 9.1 | 34.7 | 2.3 | 12.1 | 0.991 | 25.6 | 2.06 | 31.8 | 4.04 | 15.8 | 1.08 | 12 | 2.33 | 10.4 | 2.29 | 29.7 | 1.45 | 25.2
NCCCC(=O)Nc1ccncc1 | > 100 | > 100 | > 100 | > 100 | > 100 | > 100 | > 100 | > 100 | > 100 | > 100 | > 100 | > 100 | > 100 | > 100 | > 100 | > 100 | > 100 | > 100 | > 100 | > 100
Cn1ccc2c(NCCN)c3c(c(NCCN)c21)C(=O)c1ccccc1C3=O | 1.47 | 7.11 | 10.2 | > 27.7 | 15.6 | 36.7 | 2.53 | 9.96 | 0.619 | 2.38 | 0.795 | 5.37 | 0.455 |  | 2.32 | 8.68 | 0.494 | 3.18 | 0.718 | 2.58
